Data published in patent publication US20250304526A1, “HIGH AND MULTIPLE REDOX POTENTIAL, STABLE, AND SOLUBLE BIS-DIARYLAMINE DERIVATIVES AND USES THEREOF” (University of Kentucky Research Foundation, priority 2024, published 2025).

What was measured:
Format in all cases: physicochemical
[1] = Cyclic voltammetry (redox potentials, diffusion coefficients); conditions: 1 mM in 0.2M TBAPF6/CH3CN; for D (diffusion coefficient): Randles-Sevcik equation
[2] = Galvanostatic bulk electrolysis (BE) cycling in H-cell; conditions: for Cyclic voltammograms before and after BE (decomposition check): 0.1M TBAPF6/CH3CN, scan rate 0.2 V·s^−1
Description: BE experiments were performed in custom-made H-cells. The H-cell has two electrolyte chambers separated by an ultra-fine porous glass frit (P5, Adams and Chittenden) which prevents the mixing of the electrolytes. Two homemade reticulated vitreous carbon (45 PPI, Duocel®) electrodes, placed in both chambers separately served as the working and counter electrodes. A non-aqueous Ag/Ag^+ (silver wire immersed in CH3CN containing 0.1 M TBABF4 and 0.01 M AgBF4) electrodes was used as a reference electrode and was placed next to the working electrode in the same chamber. In addition, a 3 mm-glassy carbon electrode (CH Instruments, Inc.) was attached to the working electrode chamber to record CVs before and after bulk electrolysis experiments. In each of the working and the counter electrode chambers, 3.5 mL of electrolyte containing a given concentration of the neutral active species and 0.1 M TBAPF6/CH3CN were added to both the working and the counter electrode chambers for charge-discharge cycling. The voltage cut-offs were determined by recording a CV in the working electrode side prior to the start of the bulk electrolysis experiment. The values of the cut-off voltage were set by adding 0.3 V to the calculated half-way oxidation potential determined by CV. Both the working and the counter electrode chambers were stirred throughout the bulk electrolysis experiments at a stirring speed of 900 rpm to maintain mass transfer during charging and discharging. The experiment was conducted at variable C-rates, starting with 3 C then 2 C and finally 1 C with 8 cycles run at each C-rate. The galvanostatic control and data acquisition were achieved by incorporating a BioLogic VSP potentiostat.
Galvanostatic bulk electrolysis (BE) cycling was performed to monitor the charged species self-discharge by following the coulombic efficiency (CE). BE is particularly interesting because it provides deeper insights on the electrochemical stability of the electroactive compounds upon continuous galvanostatic cycling. More information about this technique is provided in the supplementary information. Essentially, if trace impurities existing in the electrolyte trigger self-discharge of the charged species, a relatively large portion of oxidized species will switch to its uncharged form if the concentration of active species is low. However, at elevated concentrations, the relative concentration of impurities with respect to active species will be considerably lower and their effect will be minimized. In other words, higher CEs are expected when the active species concentration is larger.
CE is calculated by dividing the amount of charge passed during discharging (Qdischarge) by the amount of charge passed during charging (Qcharge). A considerably lower than 99% CE indicates instability and decomposition of active material via parasitic processes. It is known that CE is affected by the C-rate at which the battery is charged/discharged. Higher C-rates usually yield higher CEs due to the fact that less time is given for unwanted parasitic processes to consume the charged species, unlike in slow C-rates where such processes are allowed to consume charge leading to lower CEs.
BE cycling was performed at three different C-rates 3 C, 2 C, and 1 C with eight charge/discharge cycles at each C-rate. At slower charge-discharge rates, the accessed capacities were higher. This is expected due to the increase in the cell polarization at faster cycling rates.

[3] = UV-NIR spectroscopy of radical cations (IVCT band, Hush analysis); conditions: for ν1/2, Hush (Hush-theory predicted band width): predicted from νmax at 298 K; for ν1/2 (measured IVCT band width) / νmax (IVCT band): radical cation, 0.5 mM in pure CH3CN
Description: (§1) In an argon-filled glove box, 0.5 mM solutions of neutral and radical cation were prepared in acetonitrile and pipetted into 1 mm path length optical glass cuvettes. The choice of this path length of cuvette is dictated by the aim to prevent the UV-vis detector saturation of the intensely colored cationic species. All samples destined to UV-vis stability monitoring contained 0.1 M TBAPF6 whereas UV-NIR samples were in pure CH3CN. Solutions were added to the cuvettes inside an argon filled glovebox, sealed with a Teflon screw cap and removed from the glovebox for spectral analysis. UV-vis spectra were collected in an Agilent 8453 diode-array spectrometer. Spectra were collected at 0, 1, 3, 4, 5, 6 and 24 h after dissolution.
The synthesized cations were also characterized using UV-NIR spectroscopy (FIG. 3). From FIG. 3 it can be clearly seen that the spectra of the charged forms change dramatically as compared to the neutral forms. […] These values match perfectly to those reported by Lambert and Noll for the same molecules using spectroelectrochemistry in 0.1 M TBAPF6 in dichloromethane.^21
Class II or III assignment is based on electronic spectroscopy; the broadness and line shape of the IVCT transition is analyzed in this case. Analysis of the line broadness and line shape of the IVCT band is also used to determine whether a mixed-valence species belongs to Class II or III. Hush theory provides a relationship that simplifies at 298 K to:
where vmax is the maximum absorption of the IVCT band given in […].

[4] = Stability via UV-vis spectroscopy over 24 h; conditions: 0.5 mM in 0.1 M TBAPF6/CH3CN
Description: as §1
UV-vis spectroscopy provides a means to monitor the stabilities of the radical cations over prolonged time scales that extend beyond that offered by CV. This is possible since all the charged forms show absorption features in the UV and visible regions, which enables monitoring of the change of concentrations over the course of time, based on changes in peak intensities.
The radical cation samples were prepared in 0.1 M TBAPF6/CH3CN inside an argon-filled glovebox and transferred into sealed cuvettes to prevent contact with atmospheric moisture/air when taken outside the glovebox. […]
The neutral samples of each molecule were also monitored for the sake of comparison. […]

E^o′1 (first redox potential) [1] | E^o′2 (second redox potential) [1] | ΔE (E^o′2 − E^o′1) [1] | D (diffusion coefficient) [1] | Cyclic voltammograms before and after BE (decomposition check) [2] | Capacity retention during BE ([2]; all C-rates (3 C, 2 C, 1 C)) | ν1/2, Hush (Hush-theory predicted band width) [3] | ν1/2 (measured IVCT band width) [3] | νmax (IVCT band) [3] | νmax (IVCT band) ([3]; listed as 1^⋅) | Stability of radical cation UV-vis absorption spectrum [4] | Capacity retention during BE ([2]; after 8 cycles at 1 C) | Capacity retention during BE ([2]; after 8 cycles at 2 C) | Capacity retention during BE ([2]; after 8 cycles at 3 C) | SMILES
0.00 V vs Cp2Fe^0/+ | 0.38 V vs Cp2Fe^0/+ | 0.38 | 4.49 10^−6 cm^2 · s^−1 | nearly identical | ~99% | 4756 cm⁻¹ | 3846 cm⁻¹ | 9790 cm⁻¹ | ~10000 cm⁻¹ | – | – | – | – | COc1ccc(N(c2ccc(OC)cc2)c2ccc(N(c3ccc(OC)cc3)c3ccc(OC)cc3)cc2)cc1 [1^+⋅]
0.17 V vs Cp2Fe^0/+ | 0.33 V vs Cp2Fe^0/+ | 0.16 | 1.81 10^−6 cm^2 · s^−1 | identical CVs | good capacity retention | 4740 cm⁻¹ | 3524 cm⁻¹ | 9728 cm⁻¹ | – | – | – | – | – | COc1ccc(N(c2ccc(OC)cc2)c2ccc(-c3ccc(N(c4ccc(OC)cc4)c4ccc(OC)cc4)cc3)cc2)cc1 [2^+⋅]
0.41 V vs Cp2Fe^0/+ | 0.91 V vs Cp2Fe^0/+ | 0.50 | 7.67 10^−6 cm^2 · s^−1 | nearly identical features | – | 5448 cm⁻¹ | 4018 cm⁻¹ | 12849 cm⁻¹ | – | very subtle changes | 94% | 97% | 99% | Cc1ccc(C(F)(F)F)cc1N(c1ccc(N(c2cc(C(F)(F)F)ccc2C)c2cc(C(F)(F)F)ccc2C)cc1)c1cc(C(F)(F)F)ccc1C [3^+⋅]
0.53 V vs Cp2Fe^0/+ | 0.69 V vs Cp2Fe^0/+ | 0.16 | 1.54 10^−6 cm^2 · s^−1 | substantial decrease in the peak heights | remarkable capacity decay | 4362 cm⁻¹ | 2519 cm⁻¹ | 8238 cm⁻¹ | – | rapid decay | – | – | – | Cc1ccc(C(F)(F)F)cc1N(c1ccc(-c2ccc(N(c3cc(C(F)(F)F)ccc3C)c3cc(C(F)(F)F)ccc3C)cc2)cc1)c1cc(C(F)(F)F)ccc1C [4^+⋅]
